Data from US11053204B2, “Pyrimidinyloxy benzene derivatives as herbicides” (FMC Corporation, priority 2015, dated 2021).

Tests used:
Assay type in all cases: in vivo
[1] = tested on: Italian ryegrass (Lolium multiflorum); assay: Test A preemergence, visual injury rating; conditions: for Plant response rating, Ryegrass, Italian: 31 g ai/ha, 0 to 100 scale, 0 no effect, 100 complete control
Summary of the method: (§1)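 Injury scores run from 0, no effect, to 100, complete control, judged by eye against untreated plants roughly 10 days after treatment. Chemicals carried a surfactant in a non-phytotoxic solvent and went onto loam–sand soil preemergence or onto one- to two-leaf seedlings postemergence.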

[2] = tested on: barnyardgrass (Echinochloa crus-galli); assay: Test A preemergence, visual injury rating; conditions: for Plant response rating, Barnyardgrass: 31 g ai/ha, 0 to 100 scale, 0 no effect, 100 complete control
Summary of the method: as §1

[3] = tested on: giant foxtail (Setaria faberii); assay: Test A preemergence, visual injury rating; conditions: for Plant response rating, Foxtail, Giant: 31 g ai/ha, 0 to 100 scale, 0 no effect, 100 complete control
Summary of the method: as §1

kochia (Kochia scoparia) [4] = assay: Test A preemergence, visual injury rating; conditions: for Plant response rating, Kochia: 31 g ai/ha, 0 to 100 scale, 0 no effect, 100 complete control
Summary of the method: as §1

[5] = tested on: pigweed (Amaranthus retroflexus); assay: Test A preemergence, visual injury rating; conditions: for Plant response rating, Pigweed: 31 g ai/ha, 0 to 100 scale, 0 no effect, 100 complete control
Summary of the method: as §1

[6] = tested on: ragweed (common ragweed, Ambrosia elatior); assay: Test A preemergence, visual injury rating; conditions: for Plant response rating, Ragweed: 31 g ai/ha, 0 to 100 scale, 0 no effect, 100 complete control
Summary of the method: as §1

[7] = tested on: Italian ryegrass (Lolium multiflorum); assay: Test A postemergence, visual injury rating; conditions: 0 is no effect, 100 is complete control; for Ryegrass, Italian plant response rating: 31 g ai/ha, 0 to 100 scale, approximately 10 days
Summary of the method: as §1

[8] = tested on: barnyardgrass (Echinochloa crus-galli); assay: Test A postemergence, visual injury rating; conditions: 0 is no effect, 100 is complete control; for Barnyardgrass plant response rating: 31 g ai/ha, 0 to 100 scale, approximately 10 days
Summary of the method: as §1

[9] = tested on: blackgrass (Alopecurus myosuroides); assay: Test A postemergence, visual injury rating; conditions: 0 is no effect, 100 is complete control; for Blackgrass plant response rating: 31 g ai/ha, 0 to 100 scale, approximately 10 days
Summary of the method: as §1

corn (Zea mays) = assay: Test A postemergence, visual injury rating; conditions: 0 is no effect, 100 is complete control; for Corn plant response rating: 31 g ai/ha, 0 to 100 scale, approximately 10 days
Summary of the method: as §1

[10] = tested on: galium (catchweed bedstraw, Galium aparine); assay: Test A postemergence, visual injury rating; conditions: 0 is no effect, 100 is complete control; for Galium plant response rating: 31 g ai/ha, 0 to 100 scale, approximately 10 days
Summary of the method: as §1

[11] = tested on: giant foxtail (Setaria faberii); assay: Test A postemergence, visual injury rating; conditions: 0 is no effect, 100 is complete control; for Foxtail, Giant plant response rating: 31 g ai/ha, 0 to 100 scale, approximately 10 days
Summary of the method: as §1

kochia (Kochia scoparia) [12] = assay: Test A postemergence, visual injury rating; conditions: 0 is no effect, 100 is complete control; for Kochia plant response rating: 31 g ai/ha, 0 to 100 scale, approximately 10 days
Summary of the method: as §1

[13] = tested on: pigweed (Amaranthus retroflexus); assay: Test A postemergence, visual injury rating; conditions: 0 is no effect, 100 is complete control; for Pigweed plant response rating: 31 g ai/ha, 0 to 100 scale, approximately 10 days
Summary of the method: as §1

[14] = tested on: ragweed (common ragweed, Ambrosia elatior); assay: Test A postemergence, visual injury rating; conditions: 0 is no effect, 100 is complete control; for Ragweed plant response rating: 31 g ai/ha, 0 to 100 scale, approximately 10 days
Summary of the method: as §1

[15] = tested on: wheat (Triticum aestivum); assay: Test A postemergence, visual injury rating; conditions: 0 is no effect, 100 is complete control; for Wheat plant response rating: 31 g ai/ha, 0 to 100 scale, approximately 10 days
Summary of the method: as §1

[16] = tested on: barnyardgrass (Echinochloa crus-galli); assay: Test B flooded paddy test, plant response rating; conditions: 250 g ai/ha, Flood, scale of 0 to 100 where 0 is no effect and 100 is complete control, 13 to 15 days
Summary of the method: (§2)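 Ratings were visual and made relative to untreated controls after 13 to 15 greenhouse days.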

[17] = tested on: ducksalad (Heteranthera limosa); assay: Test B flooded paddy test, plant response rating; conditions: 250 g ai/ha, Flood, scale of 0 to 100 where 0 is no effect and 100 is complete control, 13 to 15 days
Summary of the method: as §2

rice (Oryza sativa) = assay: Test B flooded paddy test, plant response rating; conditions: 250 g ai/ha, Flood, scale of 0 to 100 where 0 is no effect and 100 is complete control, 13 to 15 days
Summary of the method: as §2

[18] = tested on: sedge, umbrella (small-flower umbrella sedge, Cyperus difformis); assay: Test B flooded paddy test, plant response rating; conditions: 250 g ai/ha, Flood, scale of 0 to 100 where 0 is no effect and 100 is complete control, 13 to 15 days
Summary of the method: as §2

[19] = 125 g ai/ha, 0 to 100 scale (0 no effect, 100 complete control)

Cc1ccc(Oc2ncc(Cl)cn2)c(C(=O)OCCC(F)(F)F)c1 [Compound 54]
Plant response rating, Ryegrass, Italian [1]: 0
pest or weed control at 125 g/ha ([1]; Lolium multiflorum, pre-emergence, 240 h, 125 g ai/ha, 0 to 100 scale (0 no effect, 100 complete control), read-out: Ryegrass, Italian plant response rating): 0%
Plant response rating, Barnyardgrass [2]: 0
pest or weed control at 125 g/ha ([2]; Echinochloa crus-galli, pre-emergence, 240 h, 125 g ai/ha, 0 to 100 scale (0 no effect, 100 complete control), read-out: Barnyardgrass plant response rating): 0%
Plant response rating, Foxtail, Giant [3]: 0
pest or weed control at 125 g/ha ([3]; Setaria faberi, pre-emergence, 240 h, 125 g ai/ha, 0 to 100 scale (0 no effect, 100 complete control), read-out: Foxtail, Giant plant response rating): 0%
Plant response rating, Kochia (kochia (Kochia scoparia) [4]): 0
pest or weed control at 125 g/ha (kochia (Kochia scoparia) [4]; Bassia scoparia, pre-emergence, 240 h, 125 g ai/ha, 0 to 100 scale (0 no effect, 100 complete control), read-out: Kochia plant response rating): 0%
Plant response rating, Pigweed [5]: 0
pest or weed control at 125 g/ha ([5]; Amaranthus retroflexus, pre-emergence, 240 h, 125 g ai/ha, 0 to 100 scale (0 no effect, 100 complete control), read-out: Pigweed plant response rating): 0%
Plant response rating, Ragweed [6]: 0
pest or weed control at 125 g/ha ([6]; Ambrosia artemisiifolia, pre-emergence, 240 h, 125 g ai/ha, 0 to 100 scale (0 no effect, 100 complete control), read-out: Ragweed plant response rating): 0%
Ryegrass, Italian plant response rating [7]: 0
pest or weed control at 125 g/ha ([7]; Lolium multiflorum, post-emergence, 240 h, 125 g ai/ha, read-out: Ryegrass, Italian plant response rating (0 to 100 scale)): 0%
Barnyardgrass plant response rating [8]: 0
pest or weed control at 125 g/ha ([8]; Echinochloa crus-galli, post-emergence, 240 h, 125 g ai/ha, read-out: Barnyardgrass plant response rating (0 to 100 scale)): 0%
Blackgrass plant response rating [9]: 0
pest or weed control at 125 g/ha ([9]; Alopecurus myosuroides, post-emergence, 240 h, 125 g ai/ha, read-out: Blackgrass plant response rating (0 to 100 scale)): 0%
Corn plant response rating (corn (Zea mays)): 0
plant injury at 125 g/ha (corn (Zea mays); Zea mays, post-emergence, 240 h, 125 g ai/ha, read-out: Corn plant response rating (0 to 100 scale)): 0%
Galium plant response rating [10]: 0
pest or weed control at 125 g/ha ([10]; Galium, post-emergence, 240 h, 125 g ai/ha, read-out: Galium plant response rating (0 to 100 scale)): 0%
Foxtail, Giant plant response rating [11]: 0
pest or weed control at 125 g/ha ([11]; Setaria faberi, post-emergence, 240 h, 125 g ai/ha, read-out: Foxtail, Giant plant response rating (0 to 100 scale)): 0%
Kochia plant response rating (kochia (Kochia scoparia) [12]): 0
pest or weed control at 125 g/ha (kochia (Kochia scoparia) [12]; Bassia scoparia, post-emergence, 240 h, 125 g ai/ha, read-out: Kochia plant response rating (0 to 100 scale)): 0%
Pigweed plant response rating [13]: 0
pest or weed control at 125 g/ha ([13]; Amaranthus retroflexus, post-emergence, 240 h, 125 g ai/ha, read-out: Pigweed plant response rating (0 to 100 scale)): 0%
Ragweed plant response rating [14]: 0
pest or weed control at 125 g/ha ([14]; Ambrosia artemisiifolia, post-emergence, 240 h, 125 g ai/ha, read-out: Ragweed plant response rating (0 to 100 scale)): 0%
Wheat plant response rating [15]: 0
plant injury at 125 g/ha ([15]; Triticum aestivum, post-emergence, 240 h, 125 g ai/ha, read-out: Wheat plant response rating (0 to 100 scale)): 0%
pest or weed control at 250 g/ha ([16]; Echinochloa crus-galli, 312 h): 0%
pest or weed control at 250 g/ha ([17]; Heteranthera limosa, 312 h): 0%
plant injury at 250 g/ha (rice (Oryza sativa); Oryza sativa, 312 h): 0%
pest or weed control at 250 g/ha ([18]; Cyperus difformis, 312 h): 0%

FC(F)(F)C(F)(F)COCc1c(Br)cccc1Oc1ncc(Cl)cn1 [Compound 63]
Plant response rating, Ryegrass, Italian [1]: 0
Ryegrass, Italian plant response rating [1, 19]: 0
Plant response rating, Barnyardgrass [2]: 40
Barnyardgrass plant response rating [2, 19]: 100
Plant response rating, Foxtail, Giant [3]: 10
Foxtail, Giant plant response rating [3, 19]: 90
Plant response rating, Kochia (kochia (Kochia scoparia) [4]): 0
Kochia plant response rating (kochia (Kochia scoparia) [4]; [19]): 0
Plant response rating, Pigweed [5]: 0
Pigweed plant response rating [5, 19]: 90
Plant response rating, Ragweed [6]: 0
Ragweed plant response rating [6, 19]: 0
Ryegrass, Italian plant response rating [7]: 0
Ryegrass, Italian plant response rating (0 to 100 scale) ([7]; 125 g ai/ha): 0
Barnyardgrass plant response rating [8]: 0
Barnyardgrass plant response rating (0 to 100 scale) ([8]; 125 g ai/ha): 10
Blackgrass plant response rating [9]: 0
Blackgrass plant response rating (0 to 100 scale) ([9]; 125 g ai/ha): 0
Corn plant response rating (corn (Zea mays)): 10
Corn plant response rating (0 to 100 scale) (corn (Zea mays); 125 g ai/ha): 30
Galium plant response rating [10]: 0
Galium plant response rating (0 to 100 scale) ([10]; 125 g ai/ha): 30
Foxtail, Giant plant response rating [11]: 0
Foxtail, Giant plant response rating (0 to 100 scale) ([11]; 125 g ai/ha): 30
Kochia plant response rating (kochia (Kochia scoparia) [12]): 20
Kochia plant response rating (0 to 100 scale) (kochia (Kochia scoparia) [12]; 125 g ai/ha): 50
Pigweed plant response rating [13]: 20
Pigweed plant response rating (0 to 100 scale) ([13]; 125 g ai/ha): 60
Ragweed plant response rating [14]: 0
Ragweed plant response rating (0 to 100 scale) ([14]; 125 g ai/ha): 0
Wheat plant response rating [15]: 0
Wheat plant response rating (0 to 100 scale) ([15]; 125 g ai/ha): 0
Plant response rating, Barnyardgrass [16]: 45
Plant response rating, Ducksalad [17]: 100
Plant response rating, Rice (rice (Oryza sativa)): 25
Plant response rating, Sedge, Umbrella [18]: 100
